Laboratory results reported in patent US20240254089A1, “MODULATORS OF MAS-RELATED G-PROTEIN RECEPTOR X4 AND RELATED PRODUCTS AND METHODS” (ESCIENT PHARMACEUTICALS, INC., priority 2020, published 2024).
Where two headings read alike, the source gives them in different places.

Biological target: T1, human MRGPR X4 (Homo sapiens, UniProt Q96LA9)
T1 construct: expressed in transfected cells
Assay: MRGPR X4 antagonist activity, IP-One Gq HTRF assay in stably transfected HEK cells
Type: cell-based
Outline: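 IC50 comes from HTRF IP-1 accumulation in stably transfected HEK cells expressing human MRGPR X4. Compounds (10 uM top, 1:3 serial, 10 points) were co-incubated with 10 μM bilirubin, 20 μM deoxycholic acid or 100 μM conjugated bilirubin in LiCl-containing buffer, pH 8, for 1 h at 37 °C plus 30 min at room temperature.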

[1] = versus 20 μM deoxycholic acid agonist, HEK cells expressing human MRGPR X4, read-out: MRGPRX4 Antagonist Activity

T1 sequence (Q96LA9 whole entry): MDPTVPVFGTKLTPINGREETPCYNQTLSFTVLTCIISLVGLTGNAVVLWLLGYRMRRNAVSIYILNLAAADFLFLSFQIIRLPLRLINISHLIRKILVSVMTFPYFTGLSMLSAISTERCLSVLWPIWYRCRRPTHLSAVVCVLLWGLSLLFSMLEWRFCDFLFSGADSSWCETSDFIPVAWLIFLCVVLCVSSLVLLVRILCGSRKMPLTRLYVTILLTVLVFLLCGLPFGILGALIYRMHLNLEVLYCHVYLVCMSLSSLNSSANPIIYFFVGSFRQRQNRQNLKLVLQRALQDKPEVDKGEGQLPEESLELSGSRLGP

| Compound | IC50 [µM] | IC50 [1] [µM] |
| --- | --- | --- |
| O=C(NCCc1nnc2ccccn12)c1nn(Cc2cc3ccccc3o2)c2ccccc12 [Compound 496] | < 0.1 |  |
| COc1cc(Cn2nc(C(=O)O)c3ccccc32)ccc1Cl [Compound 329] | > 2.5 |  |
| O=C(NCc1cccc2[nH]ncc12)c1nn(Cc2ccc(Cl)cc2)c2ccccc12 [Compound 387] | > 2.5 |  |
| Cc1ncccc1CCNC(=O)c1nn(Cc2ccc(Cl)cc2)c2ccccc12 [Compound 44] | 0.1 to 0.5 |  |
| Cc1ccccc1S(=O)(=O)NC(=O)c1nn(Cc2ccc(C(F)(F)F)cc2Cl)c2ccccc12 [Compound 284] |  | 1 to 2.5 |
| O=C(NCCn1cncn1)c1nn(Cc2ccc(Cl)cc2)c2ccccc12 [Compound 398] | > 2.5 |  |
| O=C(NCCc1cccc(C(F)(F)F)c1)c1cn(Cc2ccc(Cl)cc2)c2ccccc12 [Compound 206] | 1 to 2.5 |  |
| O=C(NCCn1cc(C2CC2)nn1)c1nn(Cc2ccc(Cl)cc2)c2ccccc12 [Compound 138] | < 0.1 |  |
| COc1ccccc1Cn1cc(C(=O)NCCc2cccnc2)c2ccccc21 [Compound 226] | > 2.5 |  |
| O=C(CS(=O)(=O)c1cn(Cc2ccc(Cl)cc2)c2ccccc12)Nc1ccc(F)cc1 [Compound 245] |  | 0.501 to 1 |
| Cc1ccc(Cn2nc(C(=O)NCCc3c[nH]c4ccccc34)c3ccccc32)cc1 [Compound 135, N-(2-(1H-indol-3-yl)ethyl)-1-(4-methylbenzyl)-1H-indazole-3-carboxamide] | 1 to 2.5 |  |
| N#Cc1ccccc1Cn1nc(C(=O)NCCc2cccnc2)c2ccccc21 [Compound 47] | 0.1 to 0.5 |  |
| O=C(NCCn1cc(-c2ccccc2)nn1)c1nn(Cc2ccc(Cl)cc2)c2ccccc12 [Compound 141] | 0.501 to 1 |  |
| Cc1ccc(Cn2nc(C(=O)NCCc3nc4c(s3)CCC4)c3ccccc32)cc1 [Compound 36] | 0.1 to 0.5 |  |
| Cc1ccccc1CCNC(=O)c1nn(Cc2ccc(Cl)cc2)c2ccccc12 [Compound 363] | > 2.5 |  |
| O=C(NCCc1ccccn1)c1cn(Cc2cccc(F)c2)c2ccccc12 [Compound 214] | 1 to 2.5 |  |
| Cc1ccc(Cn2nc(C(=O)NCCc3nnc4n3CCCCC4)c3ccccc32)cc1 [Compound 13] | < 0.1 |  |
| O=C(Cn1nc(C(=O)NCCc2nnc3ccccn23)c2ccccc21)c1ccc(Cl)cc1 [Compound 481] | 0.501 to 1 |  |
| Cc1cccc(S(=O)(=O)NC(=O)c2nn(Cc3ccc(C#N)cc3)c3ccccc23)c1 [Compound 273] |  | 1 to 2.5 |
| O=C(NCCc1nnc2ccccn12)c1nn(Cc2ccc(Cl)cc2)c2cc(Br)ccc12 [Compound 550] | 0.1 to 0.5 |  |

| Compound | IC50 [µM] | IC50 [1] [µM] |
| --- | --- | --- |
| Cc1nnc(CCNC(=O)c2nn(Cc3ccc(Cl)cc3)c3ccccc23)n1C [Compound 80] | 0.501 to 1 |  |
| Cc1ccc(Cn2nc(C(=O)NCCc3cnoc3)c3ccccc32)cc1 [Compound 128] | > 2.5 |  |
| O=C(NCC(O)c1cccnc1)c1cn(Cc2ccc(Cl)cc2)c2ccccc12 (centres unmarked) [Compound 150] | 0.1 to 0.5 |  |
| Cc1cccc(NC(=O)CS(=O)(=O)c2cn(CCN3CCC(F)(F)C3)c3ccccc23)c1 [Compound 254] |  | 1 to 2.5 |
| O=C(NCCc1nnc2ccccn12)c1nn(CCc2ccc(Cl)c(Cl)c2)c2ccccc12 [Compound 505] | 1 to 2.5 |  |
| Cc1ccc(Cn2cc(C(=O)NCCc3cn4c(n3)SCC4)c3ccccc32)cc1 [Compound 181] | 0.1 to 0.5 |  |
| O=C(NCCc1nnc2ccccn12)c1nn(Cc2ccc(Cl)cc2)c2ccc(Cl)cc12 [Compound 12] | < 0.1 |  |
| Cc1nc(Cn2nc(C(=O)NCCc3nnc4ccccn34)c3ccccc32)nc2ccccc12 [Compound 431] | 1 to 2.5 |  |
| O=C(NCCn1cc(C2CCNCC2)nn1)c1nn(Cc2ccc(Cl)cc2)c2ccccc12 [Compound 146] |  | > 2.5 |
| Cc1ccc(C(=O)Cn2nc(C(=O)NCCc3nnc4ccccn34)c3ccccc32)cc1 [Compound 468] |  | 1 to 2.5 |
| COc1ccc(C(=O)Cn2nc(C(=O)NCCc3nnc4ccccn34)c3ccccc32)cc1 [Compound 484] |  | 1 to 2.5 |
| COc1cccc(CS(=O)(=O)NC(=O)c2nn(Cc3ccc(Cl)cc3)c3ccccc23)c1 [Compound 300] |  | > 2.5 |
| O=C(O)c1nn(Cc2ccc(OC(F)F)cc2)c2ccccc12 [Compound 325] | > 2.5 |  |
| O=C(NCCc1nnc2ccccn12)c1nn(Cc2ccc(-c3cnco3)cc2)c2ccccc12 [Compound 478] | 0.501 to 1 |  |
| Cc1cc(F)cc(S(=O)(=O)NC(=O)c2nn(Cc3ccc(OC(F)F)cc3)c3ccccc23)c1 [Compound 274] |  | 1 to 2.5 |
| O=C(NCCc1coc2ccccc12)c1nn(Cc2ccc(Cl)cc2)c2ccccc12 [Compound 356] | 0.501 to 1 |  |
| COc1cccc(CCNC(=O)c2nn(Cc3ccc(Cl)cc3)c3ccccc23)n1 [Compound 75] | 0.501 to 1 |  |
| O=C(NCCc1cccnc1)c1cn(Cc2cccc(Cl)c2)c2ccccc12 [Compound 195] | 0.501 to 1 |  |
| O=C(O)c1nn(Cc2cccc(OC(F)(F)F)c2)c2ccccc12 [Compound 328] | > 2.5 |  |
| O=C(NCCc1cccnc1)c1nn(Cc2ccc(OC(F)F)cc2)c2ccccc12 [Compound 42] | 0.1 to 0.5 |  |

| Compound | IC50 [µM] | IC50 [1] [µM] |
| --- | --- | --- |
| Cc1ccc(Cn2nc(C(=O)NCCc3cnccn3)c3ccccc32)cc1 [Compound 97] | 1 to 2.5 |  |
| Cc1cccc(S(=O)(=O)NC(=O)c2cn(Cc3ccc(OC(F)F)cc3)c3ccccc23)c1 [Compound 313] |  | > 2.5 |
| Cc1ccccc1S(=O)(=O)NC(=O)c1nn(Cc2ccc(Cl)cc2)c2ccccc12 [Compound 287] | 1 to 2.5 |  |
| CC(C)c1ccc(Cn2nc(C(=O)NCCc3ccccn3)c3ccccc32)cc1 [Compound 91] | 0.501 to 1 |  |
| Cc1cccc2[nH]c(CCNC(=O)c3nn(Cc4ccc(Cl)cc4)c4ccccc34)nc12 [Compound 561] | < 0.1 |  |
| Cc1ccc(CCNC(=O)c2cn(Cc3ccc(Cl)cc3)c3ccccc23)cn1 [Compound 151] | < 0.1 |  |
| Cn1cc2cccc(CNC(=O)c3nn(Cc4ccc(Cl)cc4)c4ccccc34)c2n1 [Compound 428] | > 2.5 |  |
| O=C(NCCc1nnc2n1CCCCC2)c1nn(Cc2cccc(F)c2)c2ccccc12 [Compound 58] | 0.1 to 0.5 |  |
| COc1cc(Cl)ccc1Cn1nc(C(=O)NCCc2nnc3n2CCCCC3)c2ccccc21 [Compound 64] | 0.1 to 0.5 |  |
| O=C(NCCc1nnc2ccccn12)c1nn(CCc2ccc(Cl)cc2)c2ccccc12 [Compound 442] |  | > 2.5 |
| O=C(NCc1ccc(-n2cccn2)cc1)c1nn(Cc2ccc(Cl)cc2)c2ccccc12 [Compound 359] | > 2.5 |  |
| COc1ccc(Cn2cc(C(=O)NCCc3ccc(Cl)c(F)c3)c3ccccc32)cc1 [Compound 218] | 1 to 2.5 |  |
| Cc1cc(Cn2nc(C(=O)NCCc3nnc4n3CCCCC4)c3ccccc32)ccc1Cl [Compound 7] | < 0.1 |  |
| CNC(=O)c1cccc(CNC(=O)c2nn(Cc3ccc(Cl)cc3)c3ccccc23)c1 [Compound 399] | > 2.5 |  |
| O=C(NCCc1nnc2n1CCCCC2)c1nn(Cc2ccc(Cl)cc2)c2ccccc12 [Compound 6] | < 0.1 |  |
| O=C(NCCc1nnc2ccccn12)c1nn(Cc2ccc(Cl)cc2)c2ccc(F)cc12 [Compound 2] | < 0.1 |  |
| O=C(NCCc1nc2c(s1)CCCC2)c1nn(Cc2ccc(OC(F)F)cc2)c2ccccc12 [Compound 82] | 0.501 to 1 |  |
| O=C(NCCc1nnc2ccccn12)c1nn(Cc2cnc(C(F)(F)F)s2)c2ccccc12 [Compound 501] | 0.1 to 0.5 |  |
| O=C(NCCc1nnc2ccccn12)c1nn(Cc2ccc(C3CC3)cc2)c2ccccc12 [Compound 490] | < 0.1 |  |
